Experimental data taken from paper PMC6090556 (Neuron, 2018).
Like-named read-outs stand apart in the source and are kept apart here. Marks after values point to notes of the source that are not given here. One block for each compound: values may come before it.

How the values were obtained:
[1] = system: NMDARs in cultured cortical neurons; type: cell-based, rat; conditions: 400 μM DL-APV
[2] = target: NMDARs in cultured cortical neurons (Rattus norvegicus, UniProt P35439+Q00960); type: cell-based; conditions: spermine potentiation of native GluN2B-mediated current responses, n=3
[3] = system: NMDARs in cultured cortical neurons transfected with GluN2C and GFP; type: cell-based, rat
[4] = system: NMDARs in cultured cortical neurons transfected with GFP alone (control); type: cell-based, rat
[5] = target: NMDARs in cerebellar granule cells, wild type mice (Mus musculus, UniProt P35436+P35438+Q01098); type: cell-based
NMDARs in cerebellar granule cells, wild type mice, sequence (P35436 23-1464, other chains not shown): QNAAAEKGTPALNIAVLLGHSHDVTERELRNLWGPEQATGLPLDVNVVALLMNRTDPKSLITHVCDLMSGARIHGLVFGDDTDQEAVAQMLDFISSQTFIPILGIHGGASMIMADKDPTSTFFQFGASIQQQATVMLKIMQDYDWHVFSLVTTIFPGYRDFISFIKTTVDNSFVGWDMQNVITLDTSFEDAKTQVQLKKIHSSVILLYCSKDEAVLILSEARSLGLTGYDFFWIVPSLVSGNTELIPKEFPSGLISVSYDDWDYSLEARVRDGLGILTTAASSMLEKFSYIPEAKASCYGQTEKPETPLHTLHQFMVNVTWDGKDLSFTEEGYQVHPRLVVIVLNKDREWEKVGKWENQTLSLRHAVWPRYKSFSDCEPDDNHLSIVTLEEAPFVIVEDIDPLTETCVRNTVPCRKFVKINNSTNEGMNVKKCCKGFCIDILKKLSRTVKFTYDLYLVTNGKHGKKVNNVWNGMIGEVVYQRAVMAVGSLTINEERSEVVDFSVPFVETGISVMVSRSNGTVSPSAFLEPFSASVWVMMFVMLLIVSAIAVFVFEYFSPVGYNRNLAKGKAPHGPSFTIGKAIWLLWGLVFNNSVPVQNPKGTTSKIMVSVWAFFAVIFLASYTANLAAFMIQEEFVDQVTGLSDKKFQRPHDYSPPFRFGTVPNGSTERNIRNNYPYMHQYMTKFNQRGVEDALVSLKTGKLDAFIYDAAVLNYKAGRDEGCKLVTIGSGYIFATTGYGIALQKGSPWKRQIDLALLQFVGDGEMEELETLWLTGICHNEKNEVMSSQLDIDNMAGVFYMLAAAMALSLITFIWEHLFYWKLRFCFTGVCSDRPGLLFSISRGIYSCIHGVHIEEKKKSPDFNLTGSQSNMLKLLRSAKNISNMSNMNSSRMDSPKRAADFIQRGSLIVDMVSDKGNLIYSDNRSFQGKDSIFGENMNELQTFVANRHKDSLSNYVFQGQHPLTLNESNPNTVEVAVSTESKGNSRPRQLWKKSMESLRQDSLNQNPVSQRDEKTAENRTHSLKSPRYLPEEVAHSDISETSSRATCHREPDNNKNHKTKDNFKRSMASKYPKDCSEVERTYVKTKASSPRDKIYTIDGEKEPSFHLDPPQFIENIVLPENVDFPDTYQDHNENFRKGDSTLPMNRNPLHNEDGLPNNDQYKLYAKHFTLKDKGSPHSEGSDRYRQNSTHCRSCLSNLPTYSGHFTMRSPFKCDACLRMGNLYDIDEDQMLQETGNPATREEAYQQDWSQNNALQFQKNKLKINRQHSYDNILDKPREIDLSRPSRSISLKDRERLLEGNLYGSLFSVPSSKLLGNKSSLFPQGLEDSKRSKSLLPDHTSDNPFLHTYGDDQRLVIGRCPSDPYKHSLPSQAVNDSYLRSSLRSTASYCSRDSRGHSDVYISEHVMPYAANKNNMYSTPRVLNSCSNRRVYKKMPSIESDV
NMDARs in cerebellar granule cells, wild type mice, sequence (Q01098 20-1239, other chains not shown): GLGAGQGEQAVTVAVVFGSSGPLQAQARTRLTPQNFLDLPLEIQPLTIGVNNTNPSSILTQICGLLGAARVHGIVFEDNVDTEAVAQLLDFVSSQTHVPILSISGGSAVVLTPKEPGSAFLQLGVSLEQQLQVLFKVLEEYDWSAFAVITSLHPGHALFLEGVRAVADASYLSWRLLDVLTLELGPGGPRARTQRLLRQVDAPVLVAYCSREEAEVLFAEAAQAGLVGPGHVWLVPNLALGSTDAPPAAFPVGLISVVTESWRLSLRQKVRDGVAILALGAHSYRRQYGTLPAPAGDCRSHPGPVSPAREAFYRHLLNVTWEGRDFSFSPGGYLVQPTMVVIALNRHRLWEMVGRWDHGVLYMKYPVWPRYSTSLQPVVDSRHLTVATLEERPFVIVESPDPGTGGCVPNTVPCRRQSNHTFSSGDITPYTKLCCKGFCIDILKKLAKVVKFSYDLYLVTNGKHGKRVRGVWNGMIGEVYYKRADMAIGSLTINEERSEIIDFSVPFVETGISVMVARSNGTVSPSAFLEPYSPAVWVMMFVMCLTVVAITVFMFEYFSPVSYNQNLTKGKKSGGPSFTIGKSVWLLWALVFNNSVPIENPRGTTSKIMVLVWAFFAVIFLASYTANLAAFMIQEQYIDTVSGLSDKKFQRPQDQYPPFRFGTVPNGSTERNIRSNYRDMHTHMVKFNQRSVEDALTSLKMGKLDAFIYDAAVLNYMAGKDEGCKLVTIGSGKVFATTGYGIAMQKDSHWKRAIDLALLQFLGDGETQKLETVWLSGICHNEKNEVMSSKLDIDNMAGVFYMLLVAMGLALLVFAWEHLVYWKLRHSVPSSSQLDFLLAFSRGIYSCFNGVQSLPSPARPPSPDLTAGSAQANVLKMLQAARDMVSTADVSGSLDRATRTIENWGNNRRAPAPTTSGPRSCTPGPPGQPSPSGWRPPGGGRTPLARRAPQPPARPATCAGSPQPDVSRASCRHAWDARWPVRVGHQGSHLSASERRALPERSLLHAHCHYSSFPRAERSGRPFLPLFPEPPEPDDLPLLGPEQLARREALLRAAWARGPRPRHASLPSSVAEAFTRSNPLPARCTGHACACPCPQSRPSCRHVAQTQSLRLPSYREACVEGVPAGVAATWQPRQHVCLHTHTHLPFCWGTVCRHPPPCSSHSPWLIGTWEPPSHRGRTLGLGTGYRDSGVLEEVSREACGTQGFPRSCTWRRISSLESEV

GluN1/GluN2A = GluN1/GluN2A (Rattus norvegicus, UniProt P35439+Q00959); conditions: 5 ms pulse of 1 mM glutamate, continuous 100 μM glycine, n=6
GluN1/GluN2C = GluN1/GluN2C (Rattus norvegicus, UniProt P35439+Q00961); conditions: 5 ms pulse of 1 mM glutamate, continuous 100 μM glycine, n=8
[6] = target: GluN1/GluN2AC1/GluN2CC2(NK) (Rattus norvegicus, UniProt P35439+Q00959+Q00961, N612K); assay: Two-electrode voltage-clamp recordings in Xenopus oocytes; type: cell-based; conditions: for GluN2AC1/GluN2CC2(NK) fitted response in saturating Zn2+ as percent of control: mean ± SEM; for IC50: read-out: GluN2AC1/GluN2CC2(NK) EC50 (95% CI), IC50 in text, Zn2+ inhibition
GluN1/GluN2AC1/GluN2CC2(NK), sequence (Q00961 20-836 N612K, other chains not shown): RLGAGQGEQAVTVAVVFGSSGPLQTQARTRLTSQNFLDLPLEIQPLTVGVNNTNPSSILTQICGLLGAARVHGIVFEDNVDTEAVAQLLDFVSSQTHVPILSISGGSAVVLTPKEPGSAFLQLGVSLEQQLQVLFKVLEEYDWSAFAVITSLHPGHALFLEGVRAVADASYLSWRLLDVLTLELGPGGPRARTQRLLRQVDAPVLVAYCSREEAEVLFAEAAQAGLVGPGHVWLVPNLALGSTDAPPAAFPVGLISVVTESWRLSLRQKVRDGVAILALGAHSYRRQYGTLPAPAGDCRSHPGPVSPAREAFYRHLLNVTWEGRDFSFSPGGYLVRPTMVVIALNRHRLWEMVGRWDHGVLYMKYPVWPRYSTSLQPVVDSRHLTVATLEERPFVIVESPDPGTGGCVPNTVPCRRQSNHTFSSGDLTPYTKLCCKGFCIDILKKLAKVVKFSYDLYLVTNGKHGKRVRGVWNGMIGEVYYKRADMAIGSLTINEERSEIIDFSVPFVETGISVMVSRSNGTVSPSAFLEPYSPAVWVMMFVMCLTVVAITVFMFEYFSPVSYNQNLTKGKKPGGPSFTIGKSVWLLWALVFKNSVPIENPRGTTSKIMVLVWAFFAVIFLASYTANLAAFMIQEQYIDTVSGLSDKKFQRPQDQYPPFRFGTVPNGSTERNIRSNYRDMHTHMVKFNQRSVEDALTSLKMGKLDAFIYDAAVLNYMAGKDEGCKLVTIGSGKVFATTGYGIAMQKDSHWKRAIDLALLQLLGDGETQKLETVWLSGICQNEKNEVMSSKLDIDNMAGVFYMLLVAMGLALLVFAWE
GluN1/GluN2AC1/GluN2CC2(NK), sequence (Q00959 23-1464, other chains not shown): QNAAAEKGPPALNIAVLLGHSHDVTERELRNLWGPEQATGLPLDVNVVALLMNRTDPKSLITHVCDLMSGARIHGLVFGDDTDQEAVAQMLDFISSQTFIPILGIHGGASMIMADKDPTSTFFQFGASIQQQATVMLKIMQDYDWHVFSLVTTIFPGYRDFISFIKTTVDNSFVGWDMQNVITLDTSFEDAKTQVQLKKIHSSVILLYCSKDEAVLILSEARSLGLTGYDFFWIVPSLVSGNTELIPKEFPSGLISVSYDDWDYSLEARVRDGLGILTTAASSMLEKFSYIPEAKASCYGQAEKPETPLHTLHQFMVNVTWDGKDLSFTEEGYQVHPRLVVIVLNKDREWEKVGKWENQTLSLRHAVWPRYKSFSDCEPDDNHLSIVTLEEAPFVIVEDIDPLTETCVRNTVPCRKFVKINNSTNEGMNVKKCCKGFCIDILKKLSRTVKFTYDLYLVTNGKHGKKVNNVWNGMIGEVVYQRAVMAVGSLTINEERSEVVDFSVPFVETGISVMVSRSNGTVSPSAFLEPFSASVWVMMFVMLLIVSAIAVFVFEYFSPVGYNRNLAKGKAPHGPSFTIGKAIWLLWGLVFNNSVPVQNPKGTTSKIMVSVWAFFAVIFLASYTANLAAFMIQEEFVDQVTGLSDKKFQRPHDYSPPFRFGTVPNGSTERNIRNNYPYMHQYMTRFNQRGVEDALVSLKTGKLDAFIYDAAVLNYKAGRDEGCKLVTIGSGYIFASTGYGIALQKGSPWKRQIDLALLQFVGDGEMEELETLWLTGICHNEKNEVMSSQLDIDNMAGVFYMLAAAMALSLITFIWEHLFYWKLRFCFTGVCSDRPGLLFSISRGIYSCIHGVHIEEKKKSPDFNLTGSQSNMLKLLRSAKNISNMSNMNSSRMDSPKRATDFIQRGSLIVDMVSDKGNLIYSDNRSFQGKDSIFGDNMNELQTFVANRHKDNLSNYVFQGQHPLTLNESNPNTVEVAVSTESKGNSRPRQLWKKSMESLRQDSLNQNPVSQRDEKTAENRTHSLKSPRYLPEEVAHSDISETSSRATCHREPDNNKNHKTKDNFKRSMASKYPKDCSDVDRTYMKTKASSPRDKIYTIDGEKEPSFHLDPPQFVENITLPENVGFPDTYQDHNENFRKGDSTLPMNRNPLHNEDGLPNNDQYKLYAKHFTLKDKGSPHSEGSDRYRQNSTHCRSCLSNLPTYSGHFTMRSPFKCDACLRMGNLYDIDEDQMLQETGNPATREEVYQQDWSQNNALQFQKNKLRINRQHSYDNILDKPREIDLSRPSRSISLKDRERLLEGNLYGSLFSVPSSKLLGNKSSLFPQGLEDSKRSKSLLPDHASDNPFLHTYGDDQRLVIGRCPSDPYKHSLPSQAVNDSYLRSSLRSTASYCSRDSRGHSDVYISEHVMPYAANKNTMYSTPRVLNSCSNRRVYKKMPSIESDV

GluN1/GluN2AC1/GluN2AC2 = GluN1/GluN2AC1/GluN2AC2 (Rattus norvegicus, UniProt P35439+Q00959); assay: as above
[7] = system: GluN1/GluN2B/GluN2C receptors; assay: as above; type: cell-based, rat; conditions: Figure S1
[8] = target: NMDARs in cerebellar granule cells, Grin2C−/− mice (Mus musculus, UniProt P35436+P35438); type: cell-based; conditions: 50 μM PYD-106, Grin2C−/− slices, n=8 animals
[9] = target: NMDARs in cerebellar granule cells, Grin2A−/− mice (Mus musculus, UniProt P35438+Q01098); type: cell-based; conditions: 50 μM PYD-106, Grin2A−/− slices, n=8 animals
NMDARs in cerebellar granule cells, Grin2A−/− mice, sequence (Q01098 20-1239, other chains not shown): as the sequence (Q01098 20-1239, other chains not shown) above

SMILES: NC(CCCP(=O)(O)O)C(=O)O (racemic) [DL-APV, D,L-2-amino-5-phosphonovalerate]
- current response, % of control [1]: 3.4±0.7%

SMILES: N[C@@H](CCC(=O)O)C(=O)O [Glutamate]
- time constant for glutamate deactivation (τ) (GluN1/GluN2A): 81 ± 8 ms
- time constant for glutamate deactivation (τ) (GluN1/GluN2C): 477 ± 40 ms

SMILES: [Zn+2] [Zn^2+]
- GluN2AC1/GluN2CC2(NK) fitted response in saturating Zn2+ as percent of control ([6]; pH 6.8, 0.1 mM Mg2+): 27±1.6 ^c %
- GluN2AC1/GluN2CC2(NK) fitted response in saturating Zn2+ as percent of control ([6]; pH 7.3, 0.1 mM Mg2+): 57±0.4 ^c %
- IC50 ([6]; pH 6.8, 0.1 mM Mg2+): 19 nM
- IC50 ([6]; pH 7.3, 0.1 mM Mg2+): 45 nM
- GluN2AC1/GluN2AC2 fitted response in saturating Zn2+ as percent of control (GluN1/GluN2AC1/GluN2AC2; pH 6.8, mean ± SEM): 21±1.7 ^c %
- GluN2AC1/GluN2AC2 fitted response in saturating Zn2+ as percent of control (GluN1/GluN2AC1/GluN2AC2; pH 7.3, mean ± SEM): 57±2.0 ^c %

SMILES: COC(=O)c1ccc(C2C(C(C)=O)=C(O)C(=O)N2CCc2c(C)[nH]c3ccccc23)cc1 (stereo not shown) [PYD-106]
- sensitivity to PYD-106 [7]: insensitive
- granule cell response, % of control [8]: 90±7%
- NMDAR current response in the presence of ifenprodil, % of baseline ([3]; 50 μM PYD-106, 3 μM ifenprodil, GluN2C-transfected neurons, n=5): 72±6%
- NMDAR current response, % of control ([3]; 50 μM PYD-106, GluN2C-transfected neurons, n=5): 89±1.6%
- NMDAR current response, % of control ([4]; 50 μM PYD-106, GFP control neurons, n=5): 83±0.6%
- granule cell response to pressure-applied NMDA and glycine, % of control [9]: 164±17%
- granule cell response to pressure-applied NMDA, % of DCS alone ([5]; 50 μM PYD-106, continuous 30 μM DCS, wild type mice, n=8 animals): 84±3.8%
- effect on NMDA responses with glycine as the co-agonist ([5]; wild type granule cells, n=3 animals, data not shown): no effect

More lines, main results first:

- NMDAR current, % of baseline responses [2]: 142±7.2%
SMILES: NCCCNCCCCNCCCN [Spermine]

- granule cell response to pressure-applied NMDA, % of DCS ([5]; 20 μM CIQ, 30 μM DCS, wild type mice, n=6 animals): 141±6.7%
SMILES: COc1ccc(OCC2c3cc(OC)c(OC)cc3CCN2C(=O)c2cccc(Cl)c2)cc1 (stereo not shown) [CIQ]
- NMDAR-mediated current, % of control ([3]; 20 μM CIQ, GluN2C-transfected neurons, n=5): 145±9.4%
- NMDAR current response in the presence of ifenprodil, % of baseline ([3]; CIQ, 3 μM ifenprodil, GluN2C-transfected neurons, n=4): 131±5%
- NMDAR-mediated current, % of baseline ([4]; 20 μM CIQ, control (GFP) cortical neurons, n=4): 96±4.6%
